This is an account of results in article PMC3722118, “Hellebrin and its aglycone form hellebrigenin display similar in vitro growth inhibitory effects in cancer cells and binding profiles to the alpha subunits of the Na^+/K^+-ATPase” (Molecular Cancer, 2013).

Structures are written as SMILES. Like-named read-outs stand apart in the source and are kept apart here.

The test system of one test is A549 NSCLC cells. Nature of the test: MTT colorimetric in vitro growth inhibition assay. Format: cell-based, human. Particulars: read-out: IC50 (nM) A549. An excerpt:
(§1) The histological types and origins of the eight human cancer cell lines that were used for the MTT colorimetric assay are detailed in the legend of Table 1. Two mouse cancer cell lines were also used, the CT26.WT colon cancer cell line (ATCC code CRL-2638) and the B16F10 melanoma cell line (ATCC code CRL-6475). Both cell lines were obtained from the American Type Culture Collection (ATCC, Manassas, VA). A control cell line (human NHDF fibroblasts) was obtained from PromoCell (code c-12300; Heidelberg, Germany). The cell lines detailed in Figure 2A are a generous gift from the National Cancer Institute (NCI, Bethesda, USA) to Steven Karlish’s lab.
(§2) The cancer cells were cultured in RPMI (Lonza, Verviers, Belgium) medium supplemented with 10% heat-inactivated fetal calf serum (Lonza). All culture media were supplemented with 4 mM glutamine, 100 μg/mL gentamicin, 200 U/mL penicillin and 200 μg/mL streptomycin (Lonza). The NHDF fibroblasts were cultured in Lonza medium cc3132 KT FGM-2 BulletKit.
(§3) The overall growth level of the human cancer cell lines was determined using a colorimetric MTT (3-(4,5-dimethylthiazol-2yl)-2,5-diphenyltetrazolium bromide, Sigma, Belgium) assay as detailed previously. Briefly, this test measures the number of metabolically active (thus living) cells that are able to transform the yellow MTT into the blue formazan dye via a mitochondrial reduction involving succinate dehydrogenase. The amount of formazan obtained at the end of the experiment (measured by spectrophotometry) is directly proportional to the number of living cells. The determination of the optical density in the control compared to the treated cells therefore enables quantitative measurements of the effects of compounds on the growth of normal as well as cancer cells in vitro.
(§4) Each experimental condition was performed in six replicates.

Test [1] concerns HT-29 colon cancer cells. Kind of test: MTT colorimetric in vitro growth inhibition assay. The class given is cell-based, human. The following applies: read-out: IC50 (nM) HT-29.
Excerpt: as §1, §2, §3, §4

In the next test the test system is Hs683 glioma cells. Nature of the test: MTT colorimetric in vitro growth inhibition assay. The following applies: read-out: IC50 (nM) Hs683. Format: cell-based, human.
Excerpt: as §1, §2, §3, §4

Test [2] concerns MCF-7 breast cancer cells. Nature of the test: MTT colorimetric in vitro growth inhibition assay. Format: cell-based, human. Particulars: read-out: IC50 (nM) MCF-7.
Excerpt: as §1, §2, §3, §4

Test [3] relates to PC-3 prostate cancer cells. Kind of test: MTT colorimetric in vitro growth inhibition assay. Particulars: read-out: IC50 (nM) PC-3. The class given is cell-based, human.
Excerpt: as §1, §2, §3, §4

In another test the test system is SKMEL-28 melanoma cells. Kind of test: MTT colorimetric in vitro growth inhibition assay. The class given is cell-based, human. The following applies: read-out: IC50 (nM) SKMEL-28.
Excerpt: as §1, §2, §3, §4

Another test concerns T98G glioma cells. Kind of test: MTT colorimetric in vitro growth inhibition assay. Format: cell-based, human. Particulars: read-out: IC50 (nM) T98G.
Excerpt: as §1, §2, §3, §4

For a further test, the system named is U373 glioma cells. Kind of test: MTT colorimetric in vitro growth inhibition assay. The class given is cell-based, human. The following applies: read-out: IC50 (nM) U373.
Excerpt: as §1, §2, §3, §4

Test [4] relates to human cancer cells (A549, U373, Hs683, T98G, MCF-7, SKMEL-28, PC-3, HT-29). Kind of test: MTT growth inhibition, mean over the eight human cancer cell lines. Particulars: 72 h, read-out: IC50 (nM) Mean ± SEM. Format: cell-based.
Excerpt: as §1, §2, §3, §4

For a further test, the target named is T1, human α1β1 NaK complex (Homo sapiens, UniProt P05023).
T1 construct: made in house; host or cells: Pichia pastoris strain SMD1165 (membranes)
Particulars: 3H-ouabain displacement; ref Katz et al. [5]; read-out: Affinity (nM) α-1 (KD ± SEM); cited from earlier work.

The next test addresses T2, human α2β1 NaK complex (Homo sapiens, UniProt P50993).
T2 construct: made in house; host or cells: Pichia pastoris strain SMD1165 (membranes)
The following applies: ref Katz et al. [5], cited from earlier work; for Kd: 3H-ouabain displacement, read-out: Affinity (nM) α-2 (KD ± SEM); for Selectivity α-1 / α-2: ratio of KD α-1 to KD α-2.

The next test deals with T3, human α3β1 NaK complex (Homo sapiens, UniProt P13637).
T3 construct: made in house; host or cells: Pichia pastoris strain SMD1165 (membranes)
The following applies: ref Katz et al. [5], cited from earlier work; for Kd: 3H-ouabain displacement, read-out: Affinity (nM) α-3 (KD ± SEM); for Selectivity α-1 / α-3: ratio of KD α-1 to KD α-3.

Test [5] concerns HT-29 colon cancer cells. Nature of the test: O2 consumption rate (MitoXpress assay). The class given is cell-based, human. The following applies: compounds at their IC50 (MTT), 24 h. On the procedure: For enzymatic determination of lactate production, confluent tumor cells were incubated with 10 mM glucose for 24 hours. Culture medium was then filtered through centrifugation columns with a 10 KDa cutoff, and L-lactate concentrations were determined on an ISCUSflex analyzer (CMA Microdialysis AB, Solna, Sweden). O2 consumption was determined using the MitoXpress assay according to the manufacturer’s instructions (LuxCell Biosciences, Cork, Ireland). Briefly, after adding the oxygen probe to tumor cells cultured for 24 hours in 96-well microplates with or without the tested compounds, the wells were sealed with mineral oil, and respiration was evaluated using time-resolved fluorescent plate readers. Under these conditions, O2 depletion was translated into an increase in probe phosphorescence signal, and the slope of this signal was used to derive the O2 consumption rate.
Figure 6 Metabolic profiling of human HT29 colon cancer cells treated with cardiotonic steroids. A: Extracellular lactate concentrations and B: O2 consumption rates in HT29 cancer cells treated with the indicated compounds at their IC50in vitro growth inhibitory concentrations (see Table 1). The data (mean ± SEM from triplicates) are expressed in mM lactate accumulated in the extracellular medium after 24 hours and arbitrary units derived from time-resolved fluorescent signal.min^-1.

The mark [6] stands for this setting: Homo sapiens, A549, 72 h, three days of culture, * three independent experiments, ** one experiment, six replicates.
The mark [7] stands for this setting: Homo sapiens, HT-29, 72 h, three days of culture, * three independent experiments, ** one experiment, six replicates.
The mark [8] stands for this setting: Homo sapiens, Hs 683, 72 h, three days of culture, * three independent experiments, ** one experiment, six replicates.
The mark [9] stands for this setting: Homo sapiens, MCF7, 72 h, three days of culture, * three independent experiments, ** one experiment, six replicates.
[10] abbreviates: Homo sapiens, 72 h, three days of culture, * three independent experiments, ** one experiment, six replicates.
[11] abbreviates: Homo sapiens, SK-MEL-28, 72 h, three days of culture, * three independent experiments, ** one experiment, six replicates.
The mark [12] stands for this setting: Homo sapiens, T98G, 72 h, three days of culture, * three independent experiments, ** one experiment, six replicates.
[13] abbreviates: Homo sapiens, U373 MG, 72 h, three days of culture, * three independent experiments, ** one experiment, six replicates.
[14] abbreviates: mean over eight human cancer cell lines, three days of culture.
Where [15] appears, read: three days of culture, * three independent experiments, ** one experiment, six replicates.

For the compound `C[C@]12CC[C@H](O)C[C@H]1CC[C@@H]1[C@@H]2CC[C@]2(C)[C@@H](C3=CC(=O)OC3)[C@@H](O)C[C@]12O` [Gitoxigenin, gitoxigenin], the half-inhibitory concentration (IC50) – broadly, the midpoint of a concentration-inhibition curve – with A549 NSCLC cells (setting [6]) was 1720 nM; in the test on HT-29 colon cancer cells [1] (setting [7]), 4400 nM; in the test with Hs683 glioma cells (setting [8]) it was 653 nM; in test [2] (setting [9]), 5190 nM; in test [3] (setting [10]) it was 3960 nM; with SKMEL-28 melanoma cells (setting [11]), over 10000 nM. Also, the values for the IC50 (with T98G glioma cells (setting [12]); in the test with U373 glioma cells (setting [13]); in test [4] (setting [14])) were 3590 nM, 4480 nM and over 4250 nM, respectively. In addition, the values for the equilibrium dissociation constant (Kd) at human α1β1 NaK complex, on human α2β1 NaK complex and on human α3β1 NaK complex were 500 ± 90 nM, 1180 nM and 1050 nM, respectively. Moreover, the “Selectivity α-1 / α-2” value at human α2β1 NaK complex is 0.4. Besides, the “Selectivity α-1 / α-3” value on human α3β1 NaK complex is 0.5.

Regarding `C[C@H]1O[C@@H](O[C@H]2[C@@H](O)C[C@H](O[C@H]3[C@@H](O)C[C@H](O[C@H]4CC[C@@]5(C)[C@H](CC[C@@H]6[C@@H]5C[C@@H](O)[C@]5(C)[C@@H](C7=CC(=O)OC7)CC[C@]65O)C4)O[C@@H]3C)O[C@@H]2C)C[C@H](O)[C@@H]1O` [Digoxin, digoxin], the half-inhibitory concentration (IC50) with A549 NSCLC cells (setting [6]) is 60 ± 7 nM; in the test with HT-29 colon cancer cells [1] (setting [7]), 208 ± 20 nM; with Hs683 glioma cells (setting [8]), 51 ± 6 nM; in test [2] (setting [9]) it was 363 ± 35 nM; in [3] (setting [10]) it was 215 ± 71 nM; with SKMEL-28 melanoma cells (setting [11]), 220 ± 26 nM. In addition, the IC50 in the test on T98G glioma cells (setting [12]) was found to be 274 ± 17 nM; in the test on U373 glioma cells (setting [13]) it was 227 ± 42 nM; in test [4] (setting [14]), 202 ± 37 nM. The “O2 consumption rate (cell respiration)” value with HT-29 colon cancer cells [5] is “significantly reduced”.

For the compound `C[C@@H]1O[C@@H](O[C@H]2CC[C@@]3(C)[C@@H](CC[C@@H]4[C@@H]3CC[C@]3(C)[C@@H](C5=CC(=O)OC5)CC[C@]43O)C2)[C@H](O)[C@H](O)[C@H]1O` [Uzarigenin-rhamnoside], the IC50 in the test with A549 NSCLC cells (setting [6]) was 45 nM; in the test on HT-29 colon cancer cells [1] (setting [7]), 41 nM; with Hs683 glioma cells (setting [8]), 38 nM; in [2] (setting [9]) it was 469 nM; in test [3] (setting [10]), 77 nM; in the test on SKMEL-28 melanoma cells (setting [11]), 222 nM. For the same compound, the results for the half-maximal inhibitory concentration (IC50) (with T98G glioma cells (setting [12]); with U373 glioma cells (setting [13]); in test [4] (setting [14])) were 38 nM, 247 nM and 147 ± 55 nM, respectively. Moreover, the Kd (in general, the free concentration of one partner at which half of the binding sites on the other are occupied at equilibrium, for simple one-to-one binding) was 90 ± 20 nM on human α1β1 NaK complex, 96 ± 7 nM at human α2β1 NaK complex and 122 ± 9 nM at human α3β1 NaK complex. In addition, the “Selectivity α-1 / α-2” value at human α2β1 NaK complex was 0.9. The “Selectivity α-1 / α-3” value at human α3β1 NaK complex is on record as 0.7.

`C[C@]12CC[C@H](O)C[C@@H]1CC[C@@H]1[C@@H]2CC[C@]2(C)[C@@H](C3=CC(=O)OC3)CC[C@]12O` [Uzarigenin]: the IC50 in the test with A549 NSCLC cells (setting [15]) is 3170 nM; in the test on HT-29 colon cancer cells [1] (setting [15]), 6440 nM; in the test with Hs683 glioma cells (setting [15]), 2250 nM; in [2] (setting [15]) it was over 10000 nM; in test [3] (setting [15]), 6280 nM; in the test with SKMEL-28 melanoma cells (setting [15]), over 10000 nM. Also, the half-maximal inhibitory concentration (IC50) is 5140 nM in the test on T98G glioma cells (setting [15]) and 7920 nM in the test with U373 glioma cells (setting [15]). The values for the Kd at human α1β1 NaK complex, at human α2β1 NaK complex and on human α3β1 NaK complex were 1100 nM, 883 ± 56 nM and 1280 nM, respectively. Moreover, the “Selectivity α-1 / α-2” value at human α2β1 NaK complex is on record as 1.3. The “Selectivity α-1 / α-3” value at human α3β1 NaK complex was 0.9.

As for `C[C@H]1O[C@@H](O[C@H]2[C@@H](O)C[C@H](O[C@H]3[C@@H](O)C[C@H](O[C@H]4CC[C@@]5(C)[C@H](CC[C@@H]6[C@@H]5CC[C@]5(C)[C@@H](C7=CC(=O)OC7)[C@@H](O)C[C@]65O)C4)O[C@@H]3C)O[C@@H]2C)C[C@H](O)[C@@H]1O` [Gitoxin], the 50% inhibitory concentration (IC50) was 68 nM with A549 NSCLC cells (Homo sapiens, A549, 72 h); 352 nM in the test with HT-29 colon cancer cells [1] (Homo sapiens, HT-29, 72 h); 79 nM in the test with Hs683 glioma cells (Homo sapiens, Hs 683, 72 h); 828 nM in test [2] (Homo sapiens, MCF7, 72 h); 361 nM in test [3] (Homo sapiens, 72 h); 679 nM in the test on SKMEL-28 melanoma cells (Homo sapiens, SK-MEL-28, 72 h). The half-maximal inhibitory concentration (IC50) in the test with T98G glioma cells (Homo sapiens, T98G, 72 h) was found to be 174 nM; in the test with U373 glioma cells (Homo sapiens, U373 MG, 72 h), 351 nM; in test [4] (Homo sapiens), 362 ± 96 nM. In addition, the dissociation constant Kd is 123 ± 8 nM at human α1β1 NaK complex, 85 ± 3 nM at human α2β1 NaK complex and 108 ± 17 nM on human α3β1 NaK complex. The “Selectivity α-1 / α-2” value on human α2β1 NaK complex was 1.5. Moreover, the “Selectivity α-1 / α-3” value at human α3β1 NaK complex is on record as 1.1.
